{
  "source": "patent US5373089A",
  "about": "“Oxytocin antagonist” (Northwestern University, priority 1993, dated 1994)",
  "test_system": "pregnant baboon",
  "test": "Oxytocin challenge test in tethered pregnant baboon (antagonists-response interval)",
  "type": "in vivo",
  "conditions": "for ARI (OTA/ANTI): ratio to ANTAG I",
  "method": "The baboon is an excellent animal model because of its physiologic and anatomic similarity to humans (see articles by our laboratory: Am J Obstet Gynecol. 163:1815-1882, 1990; Am J Obstet Gynecol 165:456-560, 1991; Am J Obstet Gynecol 165:1487-1498, 1991; articles by other laboratories: Endocrine Reviews 11:124-150, 1990; 11:151-176, 1990). Pregnant tethered baboons were studied between 130 to 145 days of pregnancy Delivery=day 184). The oxytocin antagonists were administered as a single bolus injection of 1 mg intra-arterially followed 1 minute later by the infusion of oxytocin. […] This oxytocin antagonist was not produced in our laboratory and is not an oxytocin analog.",
  "data": [
    {"substance": "[(S)Pmp^1,D-Trp^2,Pen^6,Arg^8 ] oxytocin [Compound D]", "values": [
      {"measurement": "ARI (antagonists-response interval)", "setting": "1 mg single bolus intra-arterially, then oxytocin infusion, pregnant baboon day 130-145", "value": 7856},
      {"measurement": "time for which the response to oxytocin was blocked", "setting": "one mg, pregnant baboon", "value": "greater than 24 hours"},
      {"measurement": "ARI (OTA/ANTI)", "value": 133},
      {"measurement": "ARI (OTA/ANTI)", "setting": "listed as ANTAG III", "value": 133},
      {"measurement": "ARI (OTA/ANTI)", "setting": "listed as compound D", "value": "about 130"}
    ]}
  ]
}
